The values that follow come from article PMC11555231 (Nature Communications, 2024).

For one data set, the system named is hPADI4-stable mES cells. The data set is described as follows: High content microscopy of citrullinated histone H3 (H3Cit) in hPADI4-stable mES cells. Particulars: KSR/2i 3 h, Fig. S7B. Format: cell-based, mouse. The method, then:
HaLo-GFP-mito HeLa cells were grown in DMEM (Gibco) supplemented with 10% foetal bovine serum (FBS), penicillin/streptomycin (100 µg/ml) and puromycin (1 µg/ml) at 37 °C, 5% CO2. HaLo-GFP-mito HeLa cell line[82] was profiled by short tandem repeat analysis (STR) and tested negative for mycoplasma by the Cell Services Technology Platform at the Francis Crick Institute. E14 –mouse embryonic stem cells (Cambridge Stem Cell Institute, UK) were cultured in plates coated with 1% gelatine in GMEM supplemented with 10% foetal calf serum (FCS) batch-tested for ES cell culture (Gibco), 0.1 mM non-essential amino acids, 2 mM L-glutamine, 1 mM sodium pyruvate, 0.1 mM β-mercaptoethanol and 50 ng/mL leukaemia inhibitory factor (LIF) (ESGRO, Millipore). For PADI4 activation, cells were cultured in GMEM containing 10% knockout serum replacement (KSR, Life Technologies), 1% FCS batch-tested for ES cell culture (Gibco), 0.1 mM non-essential amino acids, L-glutamine, 1 mM sodium pyruvate, 0.1 mM β-mercaptoethanol, 50 ng/mL LIF (ESGRO, Millipore), 1 μM PD0325901 (AxonMedChem) and 3 μM CHIR99021 (AxonMedChem). For the generation of E14 mES stably expressing human PADI4 (hPADI4-stable), human PADI4 cDNA was inserted into ES E14 cells using the piggyBac transposon system. The Gateway system was used to clone human PADI4 into the piggyBac vector using primers PADI4_AttB1_F and PADI4_AttB2_R (Table S4). pPB-CAG-CTRL (empty vector) or pPB-CAG-hPADI4 vectors […] were transfected with the piggyBac transposase (pPBase) expression vector, pCAGPBase […], by lipofection according to the manufacturer’s instructions (Lipofectamine 2000, Invitrogen). E14 cells constitutively expressing the hygromycin resistance gene and human PADI4 were selected and expanded in media containing […] hygromycin.
E14 cells were seeded onto 96-well PerkinElmer cell carrier ultra plates (Phenoplates) coated with 0.1% gelatine, at 25,000 cells per well and grown overnight at 37 °C, 5% CO2. Outer wells were excluded but medium was added to minimise any edge effects. […]

Data set [1] has as its target T1, hPADI4 (Homo sapiens, UniProt Q9UM07).
T1 construct: PADI4 (residues 1–663); Avi-Tag (unbiotinylated); made in house; host or cells: E. coli BL21(DE3) without BirA
The data set is described as follows: COLDER assay, activation of PADI4 (calcium titration at fixed peptide, or peptide titration at 0.1 mM CaCl2). It is filed as biochemical. Particulars: 30 µM peptide. As for the experimental part: (§1) PADI4 activity was assessed using the COLDER assay[43] that measures the formation of urea-containing compounds (e.g. citrulline). The reaction was carried out in a 96-well plate with a final volume of 50 µl. His-PADI4 (50 nM) was incubated with different concentrations of peptides (100 µM to 0.3 nM) in the presence of CaCl2 (from 10 mM to 0.001 mM as specified) for 10 min. The reaction was started by the addition of 10 mM N^α-Benzoyl-L-arginine ethyl ester hydrochloride (BAEE, Merck). After 30 min, the reaction was quenched with EDTA (50 mM final concentration). For colour development, 200 µl of COLDER solution, consisting of 1 volume of solution A (80 mM diacetyl monoxime/2,3-butanedione monoxime (Merck) and 2 mM thiosemicarbazide (Acros Organics)) and 3 volumes of solution B (3 M H3PO4, 6 M H2SO4 and 2 mM NH4Fe(SO4)2) were added to each well and the mixture was heated at 95 °C for 15 min. After cooling to RT, absorbance at 540 nm was measured, and citrulline concentration was determined using a standard curve of citrulline standards. All studies were performed within the linear range of PADI4 activity, and data analysis was performed using Prism GraphPad (Dotmatics). Data are presented as the average ± standard error of the mean from at least two independent replicates.

Data set [2] has as its target T1, hPADI4. The data set is described as follows: COLDER assay, inhibition of PADI4 at 10 mM CaCl2 (substrate BAEE). Format: biochemical. The method, then:
as §1

The test system of data set [3] is hPADI4 expressing mES cells. The data set is described as follows: Cytotoxicity by live cell imaging with Incucyte Cytotox Green Dye.
Experimental: Live cell imaging was performed using an Incucyte® imaging system (Sartorius), using Incucyte® Cytotox Green Dye as per the manufacturer’s instructions.
E. Assessment of cytotoxicity by live cell imaging with Incucyte® Cytotox
Green Dye, as a measure for cell death. hPADI4 expressing mES cells treated with 1 µM
Assessment of cytotoxicity by live cell imaging with Incucyte® Cytotox Green Dye, as a read-
vehicle (0.1%), and imaged for 48 h.
A further data set concerns HaLo-GFP-mito HeLa cells. The data set is described as follows: Chloroalkane penetration assay (CAPA). Format: in vitro ADME. The following applies: for CP50: 4 h in Opti-MEM, 37 °C, chase HaLo-Tag TMR ligand 5 µM 15 min, mean ± SEM of three independent experiments; for CP50 at 4 °C relative to 37 °C: peer review response. As for the experimental part: Following the addition of chloroacetyl-NHS to the N-terminal amino group, Cys(mmt) was selectively deprotected using 1% TFA, 5% triisopropylsilane in DCM (30 min, RT). Peptides were then cyclised on resin using 2% diisopropylethylamine in DMF overnight. Following cyclisation, Lys(ivDde) was deprotected using 2% hydrazine in DMF. The resin was then washed (3 x DCM, 3 x DMF) before on-resin coupling of chloroalkane carboxylic acid was performed on the lysine side chain using Hexafluorophosphate Azabenzotriazole Tetramethyl Uronium / diisopropylethylamine in DMF for 2 h. Global deprotection and purification were then carried out as described above. Chloroalkane carboxylate was synthesised as previously described.
CAPA assays were performed following the protocol published in ref. [51]. In brief, 40,000 HaLo- GFP-mito HeLa cells were seeded in a 96-well plate. Twenty-four hours later, cells were treated with different concentrations of chloroalkane-tagged peptides (100 µM to 200 nM for PADI4_3 and PADI4_3i and 50 µM to 100 nM for PADI4_11 and PADI4_11i) for 4 h in Opti-MEM. Media containing peptides was then removed, and cells were incubated with Opti-MEM (Gibco) for 15 min. After that time, the wash was removed, and cells were chased with HaLo-Tag TMR ligand (5 µM, Promega) in Opti-MEM for 15 min. The ligand was then removed, and cells were incubated with Opti-MEM for 30 min. Cells were then trypsinised, resuspended in phosphate-buffered saline (PBS) with 0.5% FBS and analysed using a benchtop flow cytometer (MACSQuant® VYB Flow cytometer Milteny Biotec). For each well, 10000 GFP positive single cells were analysed (gating workflow shown in Supplementary Fig. 18), and TMR mean fluorescence was normalised against a positive control (cells treated with HaLo-Tag TMR ligand but no peptide) and a negative control (non-treated cells). Analysis was performed using FlowJo (LCC) software and Prism GraphPad (Dotmatics). Data were presented as the average ± standard error of three independent replicates.

[4] abbreviates: CAPA, chloroalkane-tagged peptide, 4 °C, flow cytometry, mean ± SEM of two (PADI4_3) or three (PADI4_11) independent experiments.
[5] abbreviates: CAPA, chloroalkane-tagged peptide, flow cytometry.

Bridge positions count the residues as written; N and C are the ends. Square brackets hold non-standard residues; d marks the D form. Peptide text beside a SMILES is read from it. Cit = NC(=O)NCCC[C@H](N)C(=O)O

T1 sequence (Q9UM07 whole entry, the tested form may be a part): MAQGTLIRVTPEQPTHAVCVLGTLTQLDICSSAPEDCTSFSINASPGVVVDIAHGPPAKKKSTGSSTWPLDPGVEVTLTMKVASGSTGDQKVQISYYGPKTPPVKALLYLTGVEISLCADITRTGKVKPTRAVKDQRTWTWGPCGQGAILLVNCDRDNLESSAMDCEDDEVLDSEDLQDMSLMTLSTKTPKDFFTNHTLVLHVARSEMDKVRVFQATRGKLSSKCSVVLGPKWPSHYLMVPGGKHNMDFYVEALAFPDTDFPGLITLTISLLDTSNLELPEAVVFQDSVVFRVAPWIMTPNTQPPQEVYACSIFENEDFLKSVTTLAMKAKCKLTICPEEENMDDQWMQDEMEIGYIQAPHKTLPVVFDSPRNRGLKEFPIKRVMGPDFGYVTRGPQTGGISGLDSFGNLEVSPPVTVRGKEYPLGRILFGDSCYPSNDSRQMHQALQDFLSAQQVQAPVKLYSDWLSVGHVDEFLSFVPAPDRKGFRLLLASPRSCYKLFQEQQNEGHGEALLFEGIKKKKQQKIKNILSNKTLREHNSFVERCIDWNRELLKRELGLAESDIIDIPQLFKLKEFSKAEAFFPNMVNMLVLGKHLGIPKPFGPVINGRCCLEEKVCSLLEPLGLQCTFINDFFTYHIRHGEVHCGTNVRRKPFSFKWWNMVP

In the case of `NC(=O)[C@H](CCCN=C(N)CCl)NC(=O)c1ccccc1` [Cl-amidine, reference compound], the “mean H3Cit intensity with increasing doses of inhibitor” value in the data set on hPADI4-stable mES cells was “dose-response read-outs”.
As to `CC[C@H](C)[C@@H]1NC(=O)[C@H](CCCNC(=N)N)NC(=O)[C@H](Cc2ccc(O)cc2)NC(=O)[C@H](Cc2ccccc2)NC(=O)[C@@H](Cc2ccc(O)cc2)NC(=O)CSC[C@@H](C(=O)NCC(N)=O)NC(=O)[C@H](CCC(N)=O)NC(=O)[C@H](Cc2ccc(O)cc2)NC(=O)[C@H](CC(N)=O)NC(=O)[C@@H]2CCCN2C(=O)[C@H](Cc2ccc(O)cc2)NC(=O)[C@H](Cc2c[nH]c3ccccc23)NC(=O)[C@H](Cc2ccccc2)NC(=O)CNC1=O` [PADI4_1] ({CH2CO}-[dY]FYRIGFWYPNYQCG-NH2; thioether N-14), at hPADI4 [1], the “change in K50(Ca2+) (in words)” value is recorded as “little change”. For the same compound, at hPADI4 [1] (Fig. 4A, COLDER, CaCl2 10–0.003 mM, mean ± SEM of three independent replicates), the “K50(Ca2+) of PADI4 in presence of peptide” value stood at 0.359 ± 0.026 mM. Further, at hPADI4 [2] (COLDER, 10 mM CaCl2, peptide 10–0.0003 µM), the “PADI4 inhibition (in words)” value is on record as “No PADI4 inhibition was observed”.
Take `N=C(N)NCCC[C@@H]1NC(=O)[C@@H](Cc2ccc(O)cc2)NC(=O)CSC[C@@H](C(=O)NCC(N)=O)NC(=O)[C@H](Cc2ccc(O)cc2)NC(=O)[C@H](CCCCN)NC(=O)[C@@H]2CCCN2C(=O)[C@H](Cc2c[nH]cn2)NC(=O)[C@H](CCCNC(N)=O)NC(=O)[C@H](Cc2ccc(O)cc2)NC(=O)[C@H](Cc2c[nH]cn2)NC(=O)[C@H](Cc2c[nH]cn2)NC(=O)[C@H](CC(=O)O)NC1=O` [PADI4_3.R7Cit] ({CH2CO}-[dY]RDHHY[Cit]HPKYCG-NH2; thioether N-12): the IC50 on hPADI4 [2] (average of 3 replicates (Stdev in separate column), COLDER assay, 10 mM CaCl2, substrate BAEE, source data of Figure 2F, read-out: IC50s Average) came out at 83.2 nM.
`N=C(N)NCCC[C@@H]1NC(=O)[C@H](Cc2ccc(O)cc2)NC(=O)[C@H](Cc2c[nH]cn2)NC(=O)[C@H](Cc2c[nH]cn2)NC(=O)[C@H](CC(=O)O)NC(=O)[C@H](CCCNC(=N)N)NC(=O)[C@@H](Cc2ccc(O)cc2)NC(=O)CSC[C@@H](C(=O)NCC(N)=O)NC(=O)[C@H](Cc2ccc(O)cc2)NC(=O)[C@H](CCCCN)NC(=O)[C@@H]2CCCN2C(=O)[C@H](Cc2c[nH]cn2)NC1=O` [PADI4_3] ({CH2CO}-[dY]RDHHYRHPKYCG-NH2; thioether N-12): in data set [3] (1 µM peptide, imaged for 24h), the cytotoxicity result is recorded as “No cytotoxicity was observed”. For the same compound, the “CP50 at 4 °C” value in the data set with HaLo-GFP-mito HeLa cells (CAPA at 4C, run 220915, in µM (unit assumed)) is recorded as 11.21; in the data set with HaLo-GFP-mito HeLa cells (CAPA at 4C, run 240501, in µM (unit assumed)), 8.235; in the data set with HaLo-GFP-mito HeLa cells (setting [4]), 9.7 ± 2.1 µM. In the data set on HaLo-GFP-mito HeLa cells (setting [5]), this compound showed a CP50 of 1.4 ± 0.1 µM. In addition, the “CP50 at 4 °C relative to 37 °C” value in the data set on HaLo-GFP-mito HeLa cells (CAPA) turned out to be 7 times.
As to `CC(C)C[C@H](NC(=O)[C@H](CCC(N)=O)NC(=O)[C@H](CC(C)C)NC(=O)[C@@H](NC(=O)[C@H](CCC(N)=O)NC(=O)[C@H](CCCNC(=N)N)NC(=O)[C@H](Cc1ccc(O)cc1)NC(=O)[C@H](CCCNC(=N)N)NC(=O)[C@@H]1CSCC(=O)N[C@@H](Cc2ccc(O)cc2)C(=O)N[C@@H](CCC(=O)O)C(=O)N[C@@H](CO)C(=O)N1)C(C)C)C(N)=O` [PADI4_11] ({CH2CO}-YESCRYRQVLQL-NH2; thioether N-4), the “cytotoxicity, live cell imaging of cell death” value in data set [3] (25µM peptide, 48 h) was “not toxic to the cells”. Besides, in the data set on HaLo-GFP-mito HeLa cells (setting [4]), the “CP50 at 4 °C” value is on record as 10.8 ± 4.7 µM. In addition, the CP50 in the data set with HaLo-GFP-mito HeLa cells (setting [5]) is 3.1 ± 1.2 µM. For the same compound, the “CP50 at 4 °C relative to 37 °C” value with HaLo-GFP-mito HeLa cells (CAPA) is 4 times.
